In brackets after ≈: the same amount, converted by molar mass. Structures can show the parent of a compound that is named as a salt. Where two headings read alike, the source gives them in different places.
Experiments:
[1] = test system: Str. pneumoniae A-9585; assay: MIC, tube dilution, Streptococcus pneumoniae A9585; format: cell-based; conditions: overnight 37° C., Nutrient Broth; for MIC: Streptococcus pneumoniae, A9585, Str. pneumoniae A9585, read-out: Minimum Inhibitory Concentration (M.I.C.)
Source text: (§1) Representative compounds of the present invention were subjected to in vitro antibiotic screening against a variety of microorganisms.

[2] = test system: Str. pyogenes A-9604; assay: MIC, tube dilution, Streptococcus pyogenes A9604; format: cell-based; conditions: overnight 37° C., Nutrient Broth; for MIC: Streptococcus pyogenes, A9604, Str. pyogenes A9604, read-out: Minimum Inhibitory Concentration (M.I.C.)
Source text: as §1

[3] = test system: Staph. aureus A-9537; assay: MIC, tube dilution, Staphylococcus aureus A9537; format: cell-based; conditions: overnight 37° C., Nutrient Broth; for MIC: Staphylococcus aureus, A9537, Staph. aureus A9537, read-out: Minimum Inhibitory Concentration (M.I.C.)
Source text: as §1

[4] = test system: Staph. aureus A-9537 and 50% serum; assay: MIC, tube dilution, Staph. aureus A9537 + 50% serum; format: cell-based, Staphylococcus aureus; conditions: overnight 37° C.; for MIC: Staphylococcus aureus, read-out: Minimum Inhibitory Concentration (M.I.C.)
Source text: as §1

[5] = test system: Staph. aureus (Pen-Res) A-9606; assay: MIC, tube dilution, Staphylococcus aureus A9606 (Pen-Res); format: cell-based; conditions: overnight 37° C.; for MIC: Staphylococcus aureus
Source text: as §1

[6] = test system: Staph. aureus (Meth-Res) A-15097; assay: MIC, tube dilution, Staphylococcus aureus A15097 (Meth-Res); format: cell-based; conditions: overnight 37° C.; for MIC: Staphylococcus aureus
Source text: as §1

[7] = test system: Str. faecalis A-20688; assay: MIC, tube dilution, Streptococcus faecalis A20688; format: cell-based; conditions: overnight 37° C.; for MIC: Enterococcus faecalis, A20688, Str. faecalis A20688, read-out: Minimum Inhibitory Concentration (M.I.C.)
Source text: as §1

[8] = test system: E. coli A-15119; assay: MIC, tube dilution, Escherichia coli A15119; format: cell-based; conditions: overnight 37° C.; for MIC: Escherichia coli, A15119, E. coli A15119, read-out: Minimum Inhibitory Concentration (M.I.C.)
Source text: as §1

[9] = test system: E. coli A-20341-1; assay: MIC, tube dilution, Escherichia coli A20341-1; format: cell-based
Source text: as §1

[10] = test system: K. pneumoniae A-15130; assay: MIC, tube dilution, Klebsiella pneumoniae A15130; format: cell-based; conditions: overnight 37° C.; for MIC: Klebsiella pneumoniae, A15130, K. pneumoniae A15130, read-out: Minimum Inhibitory Concentration (M.I.C.)
Source text: as §1

[11] = test system: Klebsiella species A20468; assay: MIC, tube dilution, Klebsiella species A20468; format: cell-based; conditions: Klebsiella species (K. pneumoniae) A20468, overnight 37° C.; for MIC: read-out: Minimum Inhibitory Concentration (M.I.C.)
Source text: as §1

[12] = test system: Pr. mirabilis A-9900; assay: MIC, tube dilution, Proteus mirabilis A9900; format: cell-based; conditions: overnight 37° C.; for MIC: Proteus mirabilis, A9900, Proteus mirabilis A9900, read-out: Minimum Inhibitory Concentration (M.I.C.)
Source text: as §1

[13] = test system: Pr. morganii A-15153; assay: MIC, tube dilution, Proteus morganii A15153; format: cell-based; conditions: overnight 37° C.; for MIC: Morganella morganii, A15153, Proteus morganii A15153, read-out: Minimum Inhibitory Concentration (M.I.C.)
Source text: as §1

[14] = test system: Ser. marcescens A-20019; assay: MIC, tube dilution, Serratia marcescens A20019; format: cell-based; conditions: overnight 37° C.; for MIC: Serratia marcescens, A20019, Serratia marcescens A20019, read-out: Minimum Inhibitory Concentration (M.I.C.)
Source text: as §1

[15] = test system: Ent. cloacae A-9659; assay: MIC, tube dilution, Enterobacter cloacae A9659; format: cell-based; conditions: overnight 37° C.; for MIC: Enterobacter cloacae, A9659, Enterobacter cloacae A9659, read-out: Minimum Inhibitory Concentration (M.I.C.)
Source text: as §1

[16] = test system: Ent. cloacae A-9656; assay: MIC, tube dilution, Enterobacter cloacae A9656; format: cell-based; conditions: overnight 37° C.; for MIC: read-out: Minimum Inhibitory Concentration (M.I.C.)
Source text: as §1

[17] = test system: Ps. aeruginosa A-9843A; assay: MIC, tube dilution, Pseudomonas aeruginosa A9843A; format: cell-based; conditions: overnight 37° C.; for MIC: Pseudomonas aeruginosa, A9843A, read-out: Minimum Inhibitory Concentration (M.I.C.), Pseudomonas aeruginosa A9843A
Source text: as §1

[18] = test system: Ps. aeruginosa A-21213; assay: MIC, tube dilution, Pseudomonas aeruginosa A21213; format: cell-based; conditions: overnight 37° C.; for MIC: read-out: Minimum Inhibitory Concentration (M.I.C.)
Source text: as §1

[19] = test system: Proteus rettgeri A21203; assay: MIC, tube dilution, Proteus rettgeri A21203; format: cell-based; conditions: overnight 37° C.; for MIC: Providencia rettgeri, read-out: Minimum Inhibitory Concentration (M.I.C.)
Source text: as §1

[20] = test system: Proteus vulgaris A21559; assay: MIC, tube dilution, Proteus vulgaris A21559; format: cell-based; conditions: for MIC: Proteus vulgaris
Source text: as §1

[21] = Staph. aureus A9606 (Pen-Res), read-out: Minimum Inhibitory Concentration (M.I.C.)
[22] = Staph. aureus A15097 (Meth-Res), read-out: Minimum Inhibitory Concentration (M.I.C.)
[23] = A21559, Proteus vulgaris A21559, overnight 37° C., read-out: Minimum Inhibitory Concentration (M.I.C.)
[24] = Escherichia coli, A203411; E. coli A20341-1; overnight 37° C.; read-out: Minimum Inhibitory Concentration (M.I.C.)

Row | SMILES | MIC [1] | MIC [2] | MIC [3] | MIC [4] | MIC [5, 21] | MIC [6, 22] | MIC [7] | MIC [8] | MIC [10] | MIC [11] | MIC [12] | MIC [13] | MIC [14] | MIC [15] | MIC [17] | MIC [20, 23] | MIC [9, 24] | MIC ([16]; Enterobacter cloacae A9656) | MIC ([18]; Pseudomonas aeruginosa A21213) | MIC ([19]; Proteus rettgeri A21203) | further results
1 | CC1=C(C(=O)O)N2C(=O)[C@H]([C@H]3COC(C)(C)O3)[C@H]2S1 (relative stereo) [Example 104, (4'S,5R,6S and 4'R,5S,6R) 6-(2',2'-Dimethyl-1',3'-dioxolan-4'-yl)-2-methylpenem-3-carboxylic Acid (Isomer B)] | 16 µg/mL (≈ 56.1 µM) | 32 µg/mL (≈ 112 µM) | 63 µg/mL (≈ 221 µM) | > 32 µg/mL | 63 µg/mL (≈ 221 µM) | 63 µg/mL (≈ 221 µM) | 63 µg/mL (≈ 221 µM) | > 63 µg/mL | > 63 µg/mL | > 63 µg/mL | > 63 µg/mL | > 63 µg/mL | > 63 µg/mL | > 63 µg/mL | 63 µg/mL (≈ 221 µM) | > 63 µg/mL |  |  |  |  | MIC ([9]; Escherichia coli, A203411, E. coli A20341-1; overnight 37° C.; read-out: Minimum Inhibitory Concentration (M.I.C.)): > 63 µg/mL; MIC ([16]; Enterobacter cloacae, A9656, Enterobacter cloacae A9656): > 63 µg/mL; MIC ([18]; Pseudomonas aeruginosa, A21213, Pseudomonas aeruginosa A21213): 63 µg/mL (≈ 221 µM); MIC ([19]; A21203, Proteus rettgeri A21203): 63 µg/mL (≈ 221 µM)
2 | CC[C@H](O)[C@H]1C(=O)N2C(C(=O)O)=C(C)S[C@H]12 (relative stereo) [Example 93, (1'S,5R,6S, and 1'R,5S,6R) 6-(1'--Hydroxy-1'-propyl)-2-methylpenem-3-carboxylic acid, sodium salt (isomer C)] | > 125 µg/mL | > 125 µg/mL | > 125 µg/mL | > 63 µg/mL |  |  | > 125 µg/mL | > 125 µg/mL | > 125 µg/mL | > 125 µg/mL | > 125 µg/mL | > 125 µg/mL | > 125 µg/mL | > 125 µg/mL | > 125 µg/mL |  | > 125 µg/mL | > 125 µg/mL | > 125 µg/mL | > 125 µg/mL | MIC ([5]; read-out: Minimum Inhibitory Concentration (M.I.C.), Staph. aureus A9606 (Pen-Res)): > 125 µg/mL; MIC ([6]; read-out: Minimum Inhibitory Concentration (M.I.C.), Staph. aureus A15097 (Meth-Res)): > 125 µg/mL; MIC ([20]; A21559, read-out: Minimum Inhibitory Concentration (M.I.C.)): > 125 µg/mL
3 | NC1CCC(C2=C(C(=O)O)N3C(=O)C[C@H]3S2)C1 (single isomer, unassigned) [98 isomer C, 2-(3-Aminocyclopentyl)-penem-3-carboxylic acid] |  |  |  |  |  |  |  |  |  |  |  |  |  |  |  |  |  |  |  |  | Minimum Inhibitory Concentration (M.I.C.) ([1]; Str. pneumoniae A9585): .06 µg/mL; Minimum Inhibitory Concentration (M.I.C.) ([2]; Str. pyogenes A9604): .06 µg/mL; Minimum Inhibitory Concentration (M.I.C.) ([3]; Staph. aureus A9537): .13 µg/mL; Minimum Inhibitory Concentration (M.I.C.) [4]: 4 µg/mL; Minimum Inhibitory Concentration (M.I.C.) ([5]; Staph. aureus A9606 (Pen-Res)): > 63 µg/mL; Minimum Inhibitory Concentration (M.I.C.) ([6]; Staph. aureus A15097 (Meth-Res)): > 63 µg/mL; Minimum Inhibitory Concentration (M.I.C.) ([7]; Str. faecalis A20688): 32 µg/mL; Minimum Inhibitory Concentration (M.I.C.) ([8]; E. coli A15119): 2 µg/mL; Minimum Inhibitory Concentration (M.I.C.) ([9]; E. coli A20341-1; overnight 37° C.): 16 µg/mL; Minimum Inhibitory Concentration (M.I.C.) ([10]; K. pneumoniae A15130): 8 µg/mL; Minimum Inhibitory Concentration (M.I.C.) [11]: > 63 µg/mL; Minimum Inhibitory Concentration (M.I.C.) ([12]; Proteus mirabilis A9900): 8 µg/mL; Minimum Inhibitory Concentration (M.I.C.) ([13]; Proteus morganii A15153): 16 µg/mL; Minimum Inhibitory Concentration (M.I.C.) ([14]; Serratia marcescens A20019): 8 µg/mL; Minimum Inhibitory Concentration (M.I.C.) ([15]; Enterobacter cloacae A9659): 16 µg/mL; Minimum Inhibitory Concentration (M.I.C.) ([16]; Enterobacter cloacae A9656): 8 µg/mL; Minimum Inhibitory Concentration (M.I.C.) ([17]; Pseudomonas aeruginosa A9843A): 32 µg/mL; Minimum Inhibitory Concentration (M.I.C.) ([18]; Pseudomonas aeruginosa A21213): > 63 µg/mL; Minimum Inhibitory Concentration (M.I.C.) ([19]; Proteus rettgeri A21203): 4 µg/mL; Minimum Inhibitory Concentration (M.I.C.) ([20]; Proteus vulgaris A21559, overnight 37° C.): 16 µg/mL
4 | Cc1cc(C)n(CC2=C(C(=O)O)N3C(=O)CC3S2)n1 (centres unmarked) [Example 77, Sodium 2-(3,5-Dimethyl-1H-pyrazolemethyl)-penem-3-carboxylate] | 0.03 µg/mL | 0.5 µg/mL | 0.13 µg/mL | > 63 µg/mL | 4 µg/mL | 16 µg/mL | 125 µg/mL | 4 µg/mL | > 125 µg/mL | > 125 µg/mL | 2 µg/mL | 16 µg/mL | > 125 µg/mL | > 125 µg/mL | > 125 µg/mL | 63 µg/mL | > 125 µg/mL | 125 µg/mL | > 125 µg/mL | > 125 µg/mL | 

From patent US4272437A, “Antibacterial agents, and 4-thio azetidinone intermediates” (priority 1979, dated 1981)
